The source of these data is PMC7096246 (Journal of pharmaceutical sciences, 2020).

Values after ≈ are worked out from the molar mass of the structure shown.

The conditions of data set [1]: ref DrugBank database, DB01229 and DB08889; cited from earlier work.
Data set [2] in a line: Saturation solubility in 50% FBS/PBS. The class given is physicochemical.
The nature of data set [3]: Water solubility measured in the current study. The format is physicochemical.
For data set [4] the following is noted: cited from earlier work.

For the compound `CC(C)C[C@H](NC(=O)[C@H](CCc1ccccc1)NC(=O)CN1CCOCC1)C(=O)N[C@@H](Cc1ccccc1)C(=O)N[C@@H](CC(C)C)C(=O)[C@@]1(C)CO1` [CFZ, carfilzomib], in data set [1], the “water solubility as reported in DrugBank” value was 4.8 µg/mL (≈ 6.67 µM). Besides, the results for the solubility at 24 h in data set [2] and in data set [3] were 9.3 ± 0.2 µg/mL (≈ 12.9 µM) and 1.3 ± 0.2 µg/mL (≈ 1.81 µM), respectively. The plasma protein binding in data set [4] is 98%.
`CC(=O)O[C@H]1C(=O)[C@@]2(C)[C@H]([C@H](OC(=O)c3ccccc3)[C@]3(O)C[C@H](OC(=O)[C@H](O)[C@@H](NC(=O)c4ccccc4)c4ccccc4)C(C)=C1C3(C)C)[C@]1(OC(C)=O)CO[C@@H]1C[C@@H]2O` [PTX, paclitaxel]: the plasma protein binding in data set [4] is 88-98%.
